Data set [1] is described as follows: Urinary excretion of the radioactive metal (^99mTc) complex in animals, gamma camera imaging and renal time activity curves. Type of data set: in vivo, rabbits (New Zealand White). The settings on record: male rabbits; for time to achieve maximum activity (Tmax) / time to eliminate half of the maximum activity (T1/2): ear vein injection 1.0±0.1 mCi, from ROI time activity curve. As to the method: (§1) Male rabbits (New Zealand White) were anesthetized by the intramuscular injection of 25 mg/kg of Ketamine (Yuhan Corporation, Korea) and 6 mg/kg of Rompun (Bayer Korea), and then received through the ear vein 1.0±0.1 mCi of the ^99mTc-DTPA derivative complex, ^99mTc-DTPA-mono(3-amido-2,4,6-triiodobenzoic acid). The behavior of the drug was monitored for 30 min by scanning the whole body of rabbits using a gamma camera (SIMENSE, Germany). The gamma camera was equipped with a parallel hole collimator, and was set at an energy level of 140 keV to obtain images.
In addition, regions of interest (ROIs) were created around the right and left kidneys to produce time activity curves. From the time activity curves, time to achieve maximum activity (Tmax) and time to eliminate half of the maximum activity (T1/2) for each kidney were calculated using a computer system (SINCTRON IV, Germany), and the results are given in FIG. 4.

Data set [2] is described as follows: Urinary excretion of the radioactive metal (^166Ho) complex in animals, gamma camera imaging and renal time activity curves. Type of data set: in vivo, rabbits (New Zealand White). The settings on record: male rabbits; for half time of the maximum activity (T1/2) / time to maximum activity (Tmax): ear vein injection 3.0±0.2 mCi, from ROI time activity curve. As to the method:
as §1, with “by” for “by the”, “3.0±0.2” for “1.0±0.1”, “^166Ho-DTPA-bis(5-amido-2,4,6-triiodoisophthalic” for “the ^99mTc-DTPA derivative complex, ^99mTc-DTPA-mono(3-amido-2,4,6-triiodobenzoic”, “81 keV. At this energy level, images were obtained using a medium-energy collimator with a window width of 20%.” for “140 keV to obtain images.”
In addition, regions of interest (ROIs) were created around the right and left kidneys to produce time activity curves. From the time activity curves, time to maximum activity (Tmax) and half time of the maximum activity (T1/2) for each kidney were calculated using a computer system (SINCTRON IV, Germany), and the results are given in FIG. 6.

Take “^99mTc-DTPA-mono(3-amido-2,4,6-triiodobenzoic acid)”: in data set [1] (30 min after injection), the “radioactivity in the kidneys” value is on record as “decrease to a level near the non-specific background signal”. Besides, the “time to achieve maximum activity (Tmax)” value in data set [1] (left kidney) and in data set [1] (right kidney) was 1 min in each case. Besides, the “time to eliminate half of the maximum activity (T1/2)” value in data set [1] (left kidney) was 5 min; in data set [1] (right kidney), 5.5 min. Besides, the “time from injection by which mostly excreted via the kidneys and bladder” value in data set [1] (ear vein injection, whole body gamma camera scan for 30 min, 140 keV) is reported as not above 30 min.
As to “^166Ho-DTPA-bis(5-amido-2,4,6-triiodoisophthalic acid)”, the “radioactivity in the kidneys” value in data set [2] (30 min after injection) was “decrease to a level near the non-specific background signal”. In addition, the “half time of the maximum activity (T1/2)” value in data set [2] (left kidney) is listed as 6.5 min; in data set [2] (right kidney) it was 7.5 min. Further, the results for the “time to maximum activity (Tmax)” value in data set [2] (left kidney) and in data set [2] (right kidney) were 1.5 min and 1.75 min, respectively. The “time from injection by which mostly excreted via the kidneys and bladder” value in data set [2] (ear vein injection, whole body gamma camera scan for 30 min, 81 keV) is listed as not above 30 min.

The values are drawn from US7666390B2, “DTPA derivatives and metal complexes thereof, and radiation source and contrast agent including the metal complexes” (Korea Atomic Energy Research Institute, priority 2005, dated 2010).
